Molecular target: T1, HIV-1 protease (Human immunodeficiency virus type 1 group M subtype B, UniProt P04585)
T1 construct: Purified HIV-1 protease was obtained as described above; made in house; host or cells: E. coli K12 L507/pHP10D (NRRL B-18560)
Assay: biochemical
Type: biochemical

CC(C)(C)NC(=O)c1ccccc1C[C@@H](O)[C@H](Cc1ccccc1)NC(=O)[C@H](Cc1ccccc1)NC=O [Example 40]
IC8 (read-out: Fluorescence Assay IC8): 1 µg/mL

CC(C)(C)NC(=O)c1ccccc1C[C@@H](O)[C@H](Cc1ccccc1)NC(=O)[C@H](CC(=O)OCc1ccccc1)NC(=O)C(F)(F)F [Example 41, [2R-(2R*,3S*,6S*)]-N-t-Butyl-2-[2-hydroxy-3-phenylmethyl-4-aza-5-oxo-6-N(trifluoromethylcarbonyl)amino-7-benzyloxycarbonyl]heptyl benzamide]
IC52 (read-out: Fluorescence Assay IC52): 0.02 µg/mL

[2R-(2R*,3S*,6S*)]-N-t-Butyl-2-[2-hydroxy-3-phenylmethyl-4-aza-5-oxo-6-N(trifluoromethylcarbonyl)amino-7-naphth-2-ylthio]heptyl benzamide [Example 42]
Fluorescence Assay IC50: 0.74 ng/mL
